Measured values as given in patent publication US20240409557A1, “5,6-FUSED AND 6,6-FUSED BICYCLIC ALCOHOLS AND ETHERS AND COMPOSITIONS FOR USE AS 15-PROSTAGLANDIN DEHYDROGENASE MODULATORS” (AMGEN INC., priority 2023, published 2024).

Target: T1, human recombinant 15-PGDH (Homo sapiens, UniProt P15428)
T1 sequence (P15428 1-266): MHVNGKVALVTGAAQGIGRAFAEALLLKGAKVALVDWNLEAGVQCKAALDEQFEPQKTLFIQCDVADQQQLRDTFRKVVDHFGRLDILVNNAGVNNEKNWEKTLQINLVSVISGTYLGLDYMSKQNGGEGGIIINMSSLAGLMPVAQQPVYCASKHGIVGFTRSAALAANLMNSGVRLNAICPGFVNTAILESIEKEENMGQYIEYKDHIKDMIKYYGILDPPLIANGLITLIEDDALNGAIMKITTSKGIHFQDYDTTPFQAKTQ
Test: Recombinant 15-PGDH enzymatic inhibition assay (PGDH-Lumi, NADH signal)
Format: biochemical
Details: recombinant 15-PGDH; 15 min pre-incubation, 60 min reaction with PGE2 and NAD+, NADH signal
Experimental: These assays measured 15-PGDH enzymatic activity by quantifying the amount of NADH produced during a 60-minute reaction initiated by the addition of PGE2 and NAD+. Under the conditions of these experiments, the increase of NADH signal upon oxidation of PGE2 and reduction of NAD+ was linearly proportional to 15-PGDH enzymatic activity. The recombinant human, mouse, rat and dog 15-PGDH enzymatic assays were performed in a 25 μL volume of reaction buffer containing 50 mM Tris, pH 7.5, 0.01% Tween-20 and […] DTT in a 384-well microtiter plate. In concentration-response experiments with tested compounds, 22 concentrations from 2-fold serial dilutions in DMSO were pre-incubated with 15-PGDH for 15 minutes at room temperature. Then, PGE2 and β-NAD+ were added to initiate the 15-PGDH reaction. After 60 minutes at room temperature, the reaction was quenched and NADH signal was measured using a microtiter plate reader.
The following data (Table 27-1) provides the IC50 in μM of each compound for inhibiting enzymatic activity of the recombinant 15-PGDH in the assay described above.

Point of comparison: Cn1cc2cc(-c3ccc4cc(C5(O)CCOC5)sc4n3)cnc2n1 (stereo not drawn) [Compound C20, 3-(6-(2-methyl-2H-pyrazolo[3,4-b]pyridin-5-yl)thieno[2,3-b]pyridin-2-yl)tetrahydro-3-furanol], IC50 0.086 µM. Against it:
- Cn1cc2cc(-c3ccc4cc([C@@H](O)C5CCC(F)(F)CC5)sc4n3)cnc2n1 (single isomer, unassigned) [Compound B31S] — 15-fold lower, 0.00564 µM
- CN1CCC(O)(c2cc3ccc(-c4cnc5nn(C)cc5c4)nc3s2)C1 (stereo not drawn) [Compound C4, 1-methyl-3-(6-(2-methyl-2H-pyrazolo[3,4-b]pyridin-5-yl)thieno[2,3-b]pyridin-2-yl)-3-pyrrolidinol] — 21-fold higher, 1.8 µM
- Cn1cc2cc(-c3ccc4cc(C5(O)CCOCC5)sc4n3)cnc2n1 [Compound C22, 4-(6-(2-methyl-2H-pyrazolo[3,4-b]pyridin-5-yl)thieno[2,3-b]pyridin-2-yl)tetrahydro-2H-pyran-4-ol] — 3-fold higher, 0.257 µM
- CN1CCC1C(O)c1cc2ccc(-c3cnc4nn(C)cc4c3)nc2s1 (stereo not drawn) [Compound B45] — 10-fold lower, 0.00864 µM
- Cn1cnc(-c2ccc3cc([C@@H](O)C4CC(F)(F)C4)sc3n2)cc1=O (single isomer, unassigned) [Compound B49S] — 9.2-fold lower, 0.0093 µM
- Cn1cc2cc(-c3ccc4cc(C5(O)CCCC5)sc4n3)cnc2n1 [Compound C19, 1-(6-(2-methyl-2H-pyrazolo[3,4-b]pyridin-5-yl)thieno[2,3-b]pyridin-2-yl)cyclopentanol] — 2.1-fold lower, 0.0406 µM
- CC(O)c1cc2c(-c3cnc4nn(C)cc4c3)cc(-c3ccnn3C)nc2s1 (stereo not drawn) [Compound B5, 1-(4-(2-methyl-2H-pyrazolo[3,4-b]pyridin-5-yl)-6-(1-methyl-1H-pyrazol-5-yl)thieno[2,3-b]pyridin-2-yl)ethanol] — within 1.5-fold, 0.0784 µM
- CC(O)c1cc2c(-c3cnc4nn(C)cc4c3)cc(C3CC3)nc2s1 (stereo not drawn) [Compound B12, 1-(6-cyclopropyl-4-(2-methyl-2H-pyrazolo[3,4-b]pyridin-5-yl)thieno[2,3-b]pyridin-2-yl)ethanol] — within 1.5-fold, 0.0578 µM
- CC[C@H](O)c1cc2c(C3CC3)cc(-c3cnc4nn(C)cc4c3)nc2s1 (single isomer, unassigned) [Compound B13S] — 3.6-fold lower, 0.0236 µM
- COCc1cc2c(C3CCC3)cc(-c3cnc4nn(C)cc4c3)nc2s1 [Compound A3, 5-(4-cyclobutyl-2-(methoxymethyl)thieno[2,3-b]pyridin-6-yl)-2-methyl-2H-pyrazolo[3,4-b]pyridine] — 7.8-fold higher, 0.671 µM
- Cc1n[nH]c2ccc(-c3ccc4cc([C@@H](O)C5CCOCC5)sc4n3)cc12 (single isomer, unassigned) [Compound B40S] — 40-fold higher, 3.4 µM
- Cn1ncc2cc(-c3ccc4cc(C(O)C5CCOCC5)sc4n3)ccc21 (stereo not drawn) [Compound B34, (6-(1-methyl-1H-indazol-5-yl)thieno[2,3-b]pyridin-2-yl)(tetrahydro-2H-pyran-4-yl)methanol] — 4.2-fold lower, 0.0207 µM
- Cn1cc2cc(-c3cc(C4CC4)nc4sc(C(O)C5CCC5)cc34)cnc2n1 (stereo not drawn) [Compound B7, cyclobutyl(6-cyclopropyl-4-(2-methyl-2H-pyrazolo[3,4-b]pyridin-5-yl)thieno[2,3-b]pyridin-2-yl)methanol] — 5.8-fold lower, 0.0149 µM
- CN1CC(O)(c2cc3ccc(-c4cnc5nn(C)cc5c4)nc3s2)C1 [Compound C12, 1-methyl-3-(6-(2-methyl-2H-pyrazolo[3,4-b]pyridin-5-yl)thieno[2,3-b]pyridin-2-yl)-3-azetidinol] — 12-fold lower, 0.00727 µM
- COCC(C)(O)c1cc2ccc(-c3cnc4nn(C)cc4c3)nc2s1 (stereo not drawn) [Compound C6, 1-methoxy-2-(6-(2-methyl-2H-pyrazolo[3,4-b]pyridin-5-yl)thieno[2,3-b]pyridin-2-yl)-2-propanol] — 6.3-fold higher, 0.544 µM
- Cn1cc2cc(-c3cnc4sc([C@@H](O)C5CC(F)(F)C5)cc4n3)cnc2n1 [Compound B96S, (S)-(3,3-difluorocyclobutyl)(2-(2-methyl-2H-pyrazolo[3,4-b]pyridin-5-yl)thieno[2,3-b]pyrazin-6-yl)methanol] — 28-fold lower, 0.0031 µM
- CN1CCCC(O)(c2cc3ccc(-c4cnc5nn(C)cc5c4)nc3s2)C1 (stereo not drawn) [Compound C13, 1-methyl-3-(6-(2-methyl-2H-pyrazolo[3,4-b]pyridin-5-yl)thieno[2,3-b]pyridin-2-yl)-3-piperidinol] — 8.8-fold higher, 0.761 µM
- CN1CC(C(O)c2cc3ccc(-c4cnc5nn(C)cc5c4)nc3s2)C1 (stereo not drawn) [Compound B42, (1-methyl-3-azetidinyl)(6-(2-methyl-2H-pyrazolo[3,4-b]pyridin-5-yl)thieno[2,3-b]pyridin-2-yl)methanol] — 6.7-fold lower, 0.0128 µM
- Cn1cc2cc(-c3ccc4cc(C(C)(O)C5CC5)sc4n3)cnc2n1 (stereo not drawn) [Compound C11, 1-cyclopropyl-1-(6-(2-methyl-2H-pyrazolo[3,4-b]pyridin-5-yl)thieno[2,3-b]pyridin-2-yl)ethanol] — within 1.5-fold, 0.101 µM
- Cc1cn2cc(-c3ccc4cc([C@@H](O)C5CC(F)(F)C5)sc4n3)ccc2n1 (single isomer, unassigned) [Compound B48S] — 7.3-fold lower, 0.0118 µM
- [2H][C@@](O)(c1cc2ccc(-c3cnc4nn(C)cc4c3)nc2s1)C1CCOCC1 (single isomer, unassigned) [Compound B66S] — 1.8-fold higher, 0.155 µM
- CN1CCC(O)(c2cc3ccc(-c4cnc5nn(C)cc5c4)nc3s2)CC1 [Compound C7, 1-methyl-4-(6-(2-methyl-2H-pyrazolo[3,4-b]pyridin-5-yl)thieno[2,3-b]pyridin-2-yl)-4-piperidinol] — 34-fold higher, 2.92 µM
- Cn1cc2cc(-c3cnc4sc([C@H](O)C5CC(F)(F)C5)cc4n3)cnc2n1 [Compound B96R, (R)-(3,3-difluorocyclobutyl)(2-(2-methyl-2H-pyrazolo[3,4-b]pyridin-5-yl)thieno[2,3-b]pyrazin-6-yl)methanol] — 200-fold lower, 0.00044 µM
- Cn1cc2cc(-c3ccc4cc(C(O)(C5CC5)C(F)(F)F)sc4n3)cnc2n1 (stereo not drawn) [Compound C17, 1-cyclopropyl-2,2,2-trifluoro-1-(6-(2-methyl-2H-pyrazolo[3,4-b]pyridin-5-yl)thieno[2,3-b]pyridin-2-yl)ethanol] — 15-fold higher, 1.27 µM
- Cn1nc2cc(-c3ccc4cc([C@@H](O)C5CCOCC5)sc4n3)cnc2n1 (single isomer, unassigned) [Compound B39S] — 2.1-fold higher, 0.184 µM
- Cn1nnc2cc(-c3ccc4cc([C@@H](O)C5CC(F)(F)C5)sc4n3)cnc21 [Compound B82S, (S)-(3,3-difluorocyclobutyl)(6-(3-methyl-3H-[1,2,3]triazolo[4,5-b]pyridin-6-yl)thieno[2,3-b]pyridin-2-yl)methanol] — 52-fold lower, 0.00165 µM
- CCC[C@H](O)c1cc2ccc(-c3cnc4nn(C)cc4c3)cc2s1 (single isomer, unassigned) [Compound B54S] — 8.8-fold higher, 0.757 µM
- CCC(O)(c1cc2ccc(-c3cnc4nn(C)cc4c3)nc2s1)C(F)(F)F (stereo not drawn) [Compound C14, 1,1,1-trifluoro-2-(6-(2-methyl-2H-pyrazolo[3,4-b]pyridin-5-yl)thieno[2,3-b]pyridin-2-yl)-2-butanol] — 6.5-fold higher, 0.555 µM
- Cc1cc2[nH]ncc2cc1-c1ccc2cc([C@H](O)C3CCOCC3)sc2n1 (single isomer, unassigned) [Compound B38R] — within 1.5-fold, 0.093 µM
- Cn1cc2cc(-c3cc(-c4ccnn4C)c4cc(C(O)(C5CCC5)C(F)(F)F)sc4n3)cnc2n1 (stereo not drawn) [Compound C24, 1-cyclobutyl-2,2,2-trifluoro-1-(6-(2-methyl-2H-pyrazolo[3,4-b]pyridin-5-yl)-4-(1-methyl-1H-pyrazol-5-yl)thieno[2,3-b]pyridin-2-yl)ethanol] — 2.7-fold higher, 0.23 µM
- Cn1cc2cc(-c3ccc4cc([C@@H](O)CCC(F)(F)F)sc4c3)cnc2n1 (single isomer, unassigned) [Compound B60S] — 3.6-fold higher, 0.308 µM
- Cn1cc2cc(-c3ccc4cc(CO)sc4n3)cnc2n1 [Compound A1, (6-(2-methyl-2H-pyrazolo[3,4-b]pyridin-5-yl)thieno[2,3-b]pyridin-2-yl)methanol] — 1.8-fold higher, 0.159 µM
- CN1CCCC(C(O)c2cc3ccc(-c4cnc5nn(C)cc5c4)nc3s2)C1 (stereo not drawn) [Compound B63] — 5.7-fold lower, 0.015 µM
- Cn1ncc2cc(-c3ccc4cc([C@@H](O)C5CCOCC5)sc4n3)ccc21 (single isomer, unassigned) [Compound B34S] — 55-fold higher, 4.7 µM
- CC(C)n1ncc2cc(-c3ccc4cc([C@@H](O)C5CC(F)(F)C5)sc4n3)cnc21 (single isomer, unassigned) [Compound B65S] — 3.7-fold lower, 0.0231 µM
- O=C1NCc2cc(-c3ncc4cc([C@]5(O)C[C@@H](C(F)(F)F)C5)sc4n3)cnc21 [Compound C128C, 3-(6-(cis-1-hydroxy-3-(trifluoromethyl)cyclobutyl)thieno[2,3-d]pyrimidin-2-yl)-5,6-dihydro-7H-pyrrolo[3,4-b]pyridin-7-one] — 140-fold lower, 0.00062 µM
- Cn1cc2cc(-c3ccc4cc([C@@H](CO)C5CC(F)(F)C5)sc4n3)cnc2n1 (single isomer, unassigned) [Compound B80R] — 1.8-fold lower, 0.0467 µM
- Cn1cc2cc(-c3ccc4cc(C5(O)CCS(=O)(=O)CC5)sc4n3)cnc2n1 [Compound C8, 4-(6-(2-methyl-2H-pyrazolo[3,4-b]pyridin-5-yl)thieno[2,3-b]pyridin-2-yl)tetrahydro-2H-thiopyran-4-ol 1,1-dioxide] — within 1.5-fold, 0.0677 µM
